Results: US20230381328A1, “COMPOUND FOR THE PREVENTION OR TREATMENT OF MYASTHENIA GRAVIS” (ABLEVIA BIOTECH GMBH, priority 2020, published 2023)

What follows are molecules tested on myasthenogenic antibody mAB 198 (assay: Peptide microarray mimotope screen, binding of mAB 198 to linear and cyclic peptides (fluorescence readout)). Details: cyclic mimotopes; binding of mAB 198, relative fluorescent signal after normalization against background.
Set-up: species or system rat
Text: A custom peptide array of 30000 peptides was synthesized, with peptides of 7-19 amino acids in size; the peptides were based on substitution analyses of 176 AChR-MIR peptides with exchanges of each amino acid positions by each of the 20 common amino acids. Peptides were synthesized directly on a microarray, and screened with monoclonal antibody mAB 198 in order to obtain mimotopes with a binding strength which was improved over the human AChR alpha chain MIR-containing sequence […] (Tzartos et al, 1991; Luo et al, 2009) and over a previously published mimotope sequence ([…]), that was derived from Torpedo AchR with the help of antibody mAB 132A (Trinh et al, 2014). In particular, the wild type AChR-MIR sequence is known to structurally mimic to a certain extent the epitope recognized by myasthenogenic, unwanted and disease-causing antibodies from patients. The mimotope peptide library was designed by permutation of each single amino acid position of these two sequences with all natural amino acids in order to provide a maximally diversified collection of peptide variants. All peptides were synthesized in doublets as linear and as cyclic peptides. The aim was to obtain peptides (mimotopes) that mimic the natural epitope of myasthenogenic antibodies.
For the mimotope screen, the antibody mAB 198 (Absolute Antibody Ltd, UK) was used. This is a prototype antibody that was generated in rats using human AChR (Tzartos et al, 1983; Asher et al, 1993). […] Therefore, mAB198 was used as a surrogate probe to screen for new mimotopes that are capable of mimicking the corresponding AChR-MIR epitope or portions of the epitope.
As a readout, binding of mAB 198 to the 30000 linear and cyclic peptides was measured by fluorescence readout, and peptides were ranked according to their relative fluorescent signal after normalization against the background.
The top-ranked 100 linear and cyclic mimotopes are listed in Table 1 and Table 2 above, respectively.

| Molecule | relative signal [%] |
| --- | --- |
| 119 (GGSLRINPADY) [compound 119] | 25.4 |
| 120 (DVRLRGNPADY) [compound 120] | 25.0 |
| 121 (WNPADYR) [compound 121] | 24.9 |
| 122 (RLRYNPADY) [compound 122] | 24.5 |
| 123 (RGNPADY) [compound 123] | 23.8 |
| 124 (RRNPADY) [compound 124] | 23.5 |
| 125 (LRRNPADYG) [compound 125] | 23.4 |
| 126 (RINPADYGG) [compound 126] | 23.1 |
| 127 (LRINPADYG) [compound 127] | 22.8 |
| 128 (GGSLRVNPADY) [compound 128] | 22.5 |
| 129 (RGNPADYGG) [compound 129] | 22.2 |
| 130 (SLRLNPADY) [compound 130] | 21.8 |
| 131 (DVRLRPNPADY) [compound 131] | 21.3 |
| 132 (RLRFNPADY) [compound 132] | 21.3 |
| 133 (WNPADYP) [compound 133] | 21.1 |
| 134 (RYNPADY) [compound 134] | 20.2 |
| 135 (GGSLRGNPADY) [compound 135] | 19.6 |
| 136 (NPADYGR) [compound 136] | 19.5 |
| 137 (RVNPADY) [compound 137] | 18.7 |
| 138 (GSLRWNPADYR) [compound 138] | 16.2 |
| 139 (NPADYGH) [compound 139] | 15.8 |

| Molecule | relative signal [%] |
| --- | --- |
| 140 (RPNPADY) [compound 140] | 15.6 |
| 141 (SLRGNPADY) [compound 141] | 15.4 |
| 142 (VRLRRNPAD) [compound 142] | 14.7 |
| 143 (RTNPADY) [compound 143] | 14.6 |
| 144 (GGSLRFNPADY) [compound 144] | 14.5 |
| 145 (RLYWNPADY) [compound 145] | 13.7 |
| 146 (GNPADYGGI) [compound 146] | 13.7 |
| 147 (SLRFNPADY) [compound 147] | 13.6 |
| 148 (VRLRVNPADYG) [compound 148] | 13.4 |
| 149 (LRWNPADYP) [compound 149] | 13.1 |
| 150 (NPADYGD) [compound 150] | 12.6 |
| 151 (VNPADYG) [compound 151] | 12.5 |
| 152 (GGGSLRRNPAD) [compound 152] | 12.5 |
| 153 (RPRWNPADY) [compound 153] | 12.4 |
| 154 (GSLRWNPADYP) [compound 154] | 12.4 |
| 155 (SLRYNPADY) [compound 155] | 12.2 |
| 156 (RANPADY) [compound 156] | 12.2 |
| 157 (GSLRINPADYG) [compound 157] | 12.1 |
| 158 (RPNPADYGG) [compound 158] | 11.9 |
| 159 (NPADYGY) [compound 159] | 11.8 |
| 160 (ALRWNPADY) [compound 160] | 11.5 |

| Molecule | relative signal [%] |
| --- | --- |
| 161 (GGSLRYNPADY) [compound 161] | 11.5 |
| 162 (RIRWNPADY) [compound 162] | 11.5 |
| 163 (RWNPADR) [compound 163] | 11.0 |
| 164 (RLHWNPADY) [compound 164] | 10.8 |
| 165 (QLRWNPADY) [compound 165] | 10.7 |
| 166 (RLRQNPADY) [compound 166] | 10.6 |
| 167 (DVRLRWNPSDY) [compound 167] | 10.5 |
| 168 (VRLRWNPADYS) [compound 168] | 10.5 |
| 169 (DVRLRYNPADY) [compound 169] | 10.5 |
| 170 (GSLRFNPADYG) [compound 170] | 10.4 |
| 171 (GGSLRWNPADR) [compound 171] | 10.3 |
| 172 (LRWNPADYR) [compound 172] | 10.3 |
| 173 (LRWNPADYGGF) [compound 173] | 10.3 |
| 174 (GSLRWNPADYD) [compound 174] | 10.2 |
| 175 (RLRWNPADYHG) [compound 175] | 10.1 |
| 176 (RLRWNPADYGP) [compound 176] | 10.0 |
| 177 (GSLRWNPADYN) [compound 177] | 10.0 |
| 178 (VRLRINPADYG) [compound 178] | 10.0 |
| 179 (LRPNPADYG) [compound 179] | 10.0 |
| 180 (TLRWNPADY) [compound 180] | 9.9 |
| 181 (VRLRGNPAD) [compound 181] | 9.9 |

| Molecule | relative signal [%] |
| --- | --- |
| 182 (RSRWNPADY) [compound 182] | 9.8 |
| 183 (RLRPNPADY) [compound 183] | 9.8 |
| 184 (RLLWNPADY) [compound 184] | 9.7 |
| 185 (RLRWNPADYGS) [compound 185] | 9.7 |
| 186 (GSLRWNPADYQ) [compound 186] | 9.7 |
| 187 (VRLRLNPADYG) [compound 187] | 9.7 |
| 188 (SLYWNPADY) [compound 188] | 9.4 |
| 189 (LRGNPAD) [compound 189] | 9.1 |
| 190 (RWNPADF) [compound 190] | 9.1 |
| 191 (RLRGNPADYGG) [compound 191] | 9.0 |
| 192 (WNPDDYR) [compound 192] | 9.0 |
| 193 (LRWNPADYPGI) [compound 193] | 8.9 |
| 194 (DVRLRQNPADY) [compound 194] | 8.8 |
| 195 (SLRWNPADYHG) [compound 195] | 8.7 |
| 196 (GSLRWNPADYT) [compound 196] | 8.7 |
| 197 (NPADYGN) [compound 197] | 8.7 |
| 198 (LRFNPAD) [compound 198] | 8.6 |
| 199 (RLRTNPADY) [compound 199] | 8.6 |
| 200 (GGSLRLNPADY) [compound 200] | 8.5 |

These molecules were tested against monoclonal antibody mAB 198 (assay: peptide microarray, fluorescence, linear peptide). Details: not given.

| Molecule | relative signal [%] |
| --- | --- |
| NPDDYHG [NPDDYHG, linear mimotope] | 21.3 |
| RLHWNPADY | 20.2 |
| RLNPADY [RLNPADY, linear mimotope] | 17.7 |
| LRRNPAD [LRRNPAD, linear mimotope] | 100 |
| QWIDVRLRFNP | 20.1 |
| GSLRFNP [GSLRFNP, linear mimotope] | 21.6 |
| NPADYPG [NPADYPG, linear mimotope] | 19.8 |
| NPADYRG [NPADYRG, linear mimotope] | 71.4 |
| NPADYGY [NPADYGY, linear mimotope] | 21.2 |
| VRLRYNP [VRLRYNP, linear mimotope] | 26.3 |
| RFNPADY [RFNPADY, linear mimotope] | 21.8 |
| LRRNPADYG | 28.3 |
| VRLRRNPAD | 25 |
| LRLNPAD [LRLNPAD, linear mimotope] | 25.2 |
| WNPADYP [WNPADYP, linear mimotope] | 20.5 |
| NPADYGV [NPADYGV, linear mimotope] | 6 |
| NPADYGH [NPADYGH, linear mimotope] | 18.1 |
| VRLRFNP [VRLRFNP, linear mimotope] | 27.1 |
